Results on two compounds are retold here after ChEMBL document CHEMBL1201862, “PubChem BioAssay data set” (2004).

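Test compounds were applied to cells in 96-well plates for 48 hours at 5 doses. Abbreviation: GI50, concentration required for 50% inhibition of growth.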 Active and inactive are the calls of the source. Rule as the data show it: active = GI50 up to about 1.1 µM and inactive = higher.

Common to all, as to experiment: NCI-60 cell line screen, 48 h
Assay [1] deals with OVCAR-8.
For assay [2], the system named is CAKI-1.
Assay [3] has as its system SK-MEL-28.
The test system of assay [4] is SW-620.
Assay [5] deals with SNB-75.
The test system of assay [6] is CCRF-CEM.
Assay [7] deals with NCI-H23.
Assay [8] concerns HL-60.
Assay [9] concerns SK-MEL-5.
The subject of assay [10] is UACC-257.
Assay [11] has as its system NCI-H226.
Assay [12] has as its system MCF7.
The subject of assay [13] is RPMI-8226.
In assay [14] the test system is SR.
Assay [15] has as its system SF-539.
The subject of assay [16] is COLO 205.
Assay [17] has as its system HCT-15.
In assay [18] the test system is NCI-H460.
Assay [19] deals with UO-31.
Assay [20] relates to IGROV-1.

In the case of `OC(COc1ccccc1)CN1CCCCC1` (stereo not given), the GI50 in assay [1], in [2], in assay [3], in assay [4], in assay [5] and in assay [6] was > 100 µM (inactive) throughout. Further, the GI50 in assay [7], in assay [8], in assay [9], in [10], in assay [11] and in assay [12] was > 100 µM (inactive) each time. Moreover, the GI50 is > 100 µM (inactive) in assay [13]; > 100 µM (inactive) in assay [14]; > 100 µM (inactive) in [15]; > 100 µM (inactive) in assay [16]; above 100 µM in assay [17]; > 100 µM (inactive) in [18]. For the same compound, the GI50 in assay [19] and in assay [20] was > 100 µM (inactive) in each case.

`CCOC(=O)C1=C(Nc2cccc(OC)c2)OCC1=O`: the GI50 in [1], in assay [2], in assay [3], in [4], in assay [5] and in assay [6] was > 100 µM (inactive) throughout. The GI50 in assay [7], in assay [8], in [9], in [10], in assay [11] and in assay [12] was > 100 µM (inactive) throughout. Further, the GI50 in [13] was > 100 µM (inactive); in [14], > 100 µM (inactive); in assay [15], > 100 µM (inactive); in assay [16], > 100 µM (inactive); in [17], above 100 µM; in assay [18], > 100 µM (inactive). In addition, the GI50 in [19] and in assay [20] was > 100 µM (inactive) throughout.
